Assay results taken from patent US7074789B2, “Kinase inhibitors” (Amgen Inc., priority 1999, dated 2006).

Columns and labels:
Format in all cases: biochemical
AKT = target: T1, AKT (Homo sapiens, UniProt Q9Y243); experiment: Kinase inhibition assay (33P transfer), AKT; details: Table 2, kinase inhibition class; read-out: AKT3-1
T1 construct: Kinases are expressed as either kinase domains or full length constructs; made in house
How it was run: (§1)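 Kinase domain or full-length constructs, GST- or polyHis-tagged, expressed in E. coli or baculovirus-High Five cells, sometimes with regulatory polypeptides. Activity measured as 33PO4 transfer from ATP to plate-bound poly(Glu,Tyr) 4:1 or poly(Arg,Ser) 3:1; after incubation, plates washed with 0.5% phosphoric acid and counted by liquid scintillation.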

Tek = target: T2, Tek (Homo sapiens, UniProt Q02763); experiment: Kinase inhibition assay (33P transfer), Tek; details: read-out: Tek-1
T2 construct: Kinases are expressed as either kinase domains or full length constructs; made in house
How it was run: (§2)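 Radiometric format: recombinant tagged kinase (catalytic domain or whole protein, sometimes combined with regulatory polypeptides) phosphorylates immobilised poly(Glu,Tyr) 4:1 or poly(Arg,Ser) 3:1 using [33P]ATP. Wells are washed in 0.5% phosphoric acid, then counted. IC50 is taken where substrate labelling falls by half.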

Zap-70 = target: T3, Zap-70 (Homo sapiens, UniProt P43403); experiment: Kinase inhibition assay (33P transfer), Zap-70; details: Table 3; read-out: Zap-1
T3 construct: Kinases are expressed as either kinase domains or full length constructs; made in house
T3 sequence (P43403 1-619): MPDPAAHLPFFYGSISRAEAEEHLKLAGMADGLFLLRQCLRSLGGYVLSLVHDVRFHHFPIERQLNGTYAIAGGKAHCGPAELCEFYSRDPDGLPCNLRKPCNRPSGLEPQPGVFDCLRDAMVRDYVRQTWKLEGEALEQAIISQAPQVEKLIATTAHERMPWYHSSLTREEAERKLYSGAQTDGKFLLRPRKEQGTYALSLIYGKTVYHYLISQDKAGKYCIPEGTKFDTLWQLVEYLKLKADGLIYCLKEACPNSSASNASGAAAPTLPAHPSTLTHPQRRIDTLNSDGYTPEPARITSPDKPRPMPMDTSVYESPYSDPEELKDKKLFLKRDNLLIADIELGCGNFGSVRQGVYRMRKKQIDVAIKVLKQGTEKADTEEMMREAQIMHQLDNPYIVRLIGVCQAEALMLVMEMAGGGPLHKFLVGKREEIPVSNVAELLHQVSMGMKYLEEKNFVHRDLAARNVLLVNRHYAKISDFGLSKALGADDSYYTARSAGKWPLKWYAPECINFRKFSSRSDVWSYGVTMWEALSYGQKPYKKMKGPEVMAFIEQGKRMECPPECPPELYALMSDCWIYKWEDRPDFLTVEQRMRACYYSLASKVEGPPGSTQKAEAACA
How it was run: as §1

Lck = target: T4, Lck (Homo sapiens, UniProt P06239); experiment: Kinase inhibition assay (33P transfer), Lck; details: Table 3; read-out: Lck-1
T4 construct: Kinases are expressed as either kinase domains or full length constructs; made in house
How it was run: as §1

Kdr = target: T5, Kdr (Homo sapiens, UniProt P35968); experiment: Kinase inhibition assay (33P transfer), Kdr; details: Table 3; read-out: KDR-1
T5 construct: Kinases are expressed as either kinase domains or full length constructs; made in house
How it was run: as §1

FGFR1 = target: T6, FGFR1 (Homo sapiens, UniProt P11362); experiment: Kinase inhibition assay (33P transfer), FGFR1; details: read-out: FGFR1-1
T6 construct: Kinases are expressed as either kinase domains or full length constructs; made in house

EGFR = target: T7, EGFR (Homo sapiens, UniProt P00533); experiment: Kinase inhibition assay (33P transfer), EGFR; details: Table 2, kinase inhibition class; read-out: EGFR-1
T7 construct: Kinases are expressed as either kinase domains or full length constructs; made in house
How it was run: as §2

Lyn = target: T8, Lyn (Homo sapiens, UniProt P07948); experiment: Kinase inhibition assay (33P transfer), Lyn; details: Table 6, Lyn-1 kinase inhibition class
T8 construct: Kinases are expressed as either kinase domains or full length constructs; made in house
How it was run: as §2

IGFR-1 = target: T9, IGFR-1 (Homo sapiens, UniProt P08069); experiment: Kinase inhibition assay (33P transfer), IGFR-1; details: Table 2, kinase inhibition class
T9 construct: Kinases are expressed as either kinase domains or full length constructs; made in house

Hck-1 = target: T10, Hck-1 (Homo sapiens, UniProt P08631); experiment: Kinase inhibition assay (33P transfer), Hck; details: Table 6, Hck-1 kinase inhibition class
T10 construct: Kinases are expressed as either kinase domains or full length constructs; made in house

Itk = target: T11, Itk (Homo sapiens, UniProt Q08881); experiment: Kinase inhibition assay (33P transfer), Itk; details: Table 3; read-out: Itk-1
T11 construct: Kinases are expressed as either kinase domains or full length constructs; made in house
T11 sequence (Q08881 1-620): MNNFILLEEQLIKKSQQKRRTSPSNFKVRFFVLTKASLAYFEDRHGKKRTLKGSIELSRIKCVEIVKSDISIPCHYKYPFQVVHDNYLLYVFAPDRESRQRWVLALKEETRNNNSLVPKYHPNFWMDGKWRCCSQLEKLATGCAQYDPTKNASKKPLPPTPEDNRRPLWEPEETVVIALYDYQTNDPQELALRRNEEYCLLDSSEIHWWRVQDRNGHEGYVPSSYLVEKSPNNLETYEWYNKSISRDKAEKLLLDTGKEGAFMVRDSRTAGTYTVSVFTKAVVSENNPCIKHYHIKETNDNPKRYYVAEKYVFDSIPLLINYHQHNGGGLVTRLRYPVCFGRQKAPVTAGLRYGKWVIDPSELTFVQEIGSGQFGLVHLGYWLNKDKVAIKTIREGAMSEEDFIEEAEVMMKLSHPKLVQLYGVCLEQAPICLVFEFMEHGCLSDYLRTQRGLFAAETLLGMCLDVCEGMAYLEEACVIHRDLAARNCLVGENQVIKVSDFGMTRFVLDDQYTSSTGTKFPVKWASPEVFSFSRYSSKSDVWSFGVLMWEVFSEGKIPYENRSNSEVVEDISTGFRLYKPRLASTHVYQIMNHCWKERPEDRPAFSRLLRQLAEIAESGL
How it was run: as §2

Fyn = target: T12, Fyn (Homo sapiens, UniProt P06241); experiment: Kinase inhibition assay (33P transfer), Fyn; details: read-out: Fyn-1
T12 construct: Kinases are expressed as either kinase domains or full length constructs; made in house
How it was run: as §2

ErbB4 = target: T13, ErbB4 (Homo sapiens, UniProt Q15303); experiment: Kinase inhibition assay (33P transfer), ErbB4; details: read-out: ErbB4-1
T13 construct: Kinases are expressed as either kinase domains or full length constructs; made in house

c-Met = target: T14, c-Met (Homo sapiens, UniProt P08581); experiment: Kinase inhibition assay (33P transfer), c-Met; details: Table 2, kinase inhibition class; read-out: Met-1
T14 construct: Kinases are expressed as either kinase domains or full length constructs; made in house
How it was run: as §2

T4 sequence (P06239 whole entry, species assumed, the tested form may be a part): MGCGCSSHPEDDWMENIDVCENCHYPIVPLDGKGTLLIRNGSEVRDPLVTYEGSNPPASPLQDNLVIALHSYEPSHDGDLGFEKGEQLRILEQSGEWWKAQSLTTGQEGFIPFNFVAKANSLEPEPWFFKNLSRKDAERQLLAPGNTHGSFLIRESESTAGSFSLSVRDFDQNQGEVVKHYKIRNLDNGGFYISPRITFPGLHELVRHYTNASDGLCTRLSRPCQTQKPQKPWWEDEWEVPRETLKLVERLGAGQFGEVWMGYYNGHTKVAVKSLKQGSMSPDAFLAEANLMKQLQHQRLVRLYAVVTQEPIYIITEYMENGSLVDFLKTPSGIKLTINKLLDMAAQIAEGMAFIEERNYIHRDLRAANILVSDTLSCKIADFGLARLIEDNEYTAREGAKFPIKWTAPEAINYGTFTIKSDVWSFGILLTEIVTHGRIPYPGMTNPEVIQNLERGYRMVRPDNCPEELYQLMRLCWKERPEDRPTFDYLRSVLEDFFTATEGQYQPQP
T1 sequence (Q9Y243 whole entry, the tested form may be a part): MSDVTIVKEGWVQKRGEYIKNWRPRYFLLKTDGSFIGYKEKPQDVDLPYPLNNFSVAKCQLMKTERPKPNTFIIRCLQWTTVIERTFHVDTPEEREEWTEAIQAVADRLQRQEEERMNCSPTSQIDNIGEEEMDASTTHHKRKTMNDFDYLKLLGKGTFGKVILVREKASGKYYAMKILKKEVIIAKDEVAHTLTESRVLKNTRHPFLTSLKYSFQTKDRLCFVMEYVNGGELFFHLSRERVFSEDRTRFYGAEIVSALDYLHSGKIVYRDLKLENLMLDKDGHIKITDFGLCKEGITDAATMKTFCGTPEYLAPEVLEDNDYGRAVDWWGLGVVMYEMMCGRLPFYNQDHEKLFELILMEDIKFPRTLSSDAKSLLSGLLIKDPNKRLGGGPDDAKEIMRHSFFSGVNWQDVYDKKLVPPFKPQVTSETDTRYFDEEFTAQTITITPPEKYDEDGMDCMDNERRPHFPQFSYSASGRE
T5 sequence (P35968 20-1356, species assumed): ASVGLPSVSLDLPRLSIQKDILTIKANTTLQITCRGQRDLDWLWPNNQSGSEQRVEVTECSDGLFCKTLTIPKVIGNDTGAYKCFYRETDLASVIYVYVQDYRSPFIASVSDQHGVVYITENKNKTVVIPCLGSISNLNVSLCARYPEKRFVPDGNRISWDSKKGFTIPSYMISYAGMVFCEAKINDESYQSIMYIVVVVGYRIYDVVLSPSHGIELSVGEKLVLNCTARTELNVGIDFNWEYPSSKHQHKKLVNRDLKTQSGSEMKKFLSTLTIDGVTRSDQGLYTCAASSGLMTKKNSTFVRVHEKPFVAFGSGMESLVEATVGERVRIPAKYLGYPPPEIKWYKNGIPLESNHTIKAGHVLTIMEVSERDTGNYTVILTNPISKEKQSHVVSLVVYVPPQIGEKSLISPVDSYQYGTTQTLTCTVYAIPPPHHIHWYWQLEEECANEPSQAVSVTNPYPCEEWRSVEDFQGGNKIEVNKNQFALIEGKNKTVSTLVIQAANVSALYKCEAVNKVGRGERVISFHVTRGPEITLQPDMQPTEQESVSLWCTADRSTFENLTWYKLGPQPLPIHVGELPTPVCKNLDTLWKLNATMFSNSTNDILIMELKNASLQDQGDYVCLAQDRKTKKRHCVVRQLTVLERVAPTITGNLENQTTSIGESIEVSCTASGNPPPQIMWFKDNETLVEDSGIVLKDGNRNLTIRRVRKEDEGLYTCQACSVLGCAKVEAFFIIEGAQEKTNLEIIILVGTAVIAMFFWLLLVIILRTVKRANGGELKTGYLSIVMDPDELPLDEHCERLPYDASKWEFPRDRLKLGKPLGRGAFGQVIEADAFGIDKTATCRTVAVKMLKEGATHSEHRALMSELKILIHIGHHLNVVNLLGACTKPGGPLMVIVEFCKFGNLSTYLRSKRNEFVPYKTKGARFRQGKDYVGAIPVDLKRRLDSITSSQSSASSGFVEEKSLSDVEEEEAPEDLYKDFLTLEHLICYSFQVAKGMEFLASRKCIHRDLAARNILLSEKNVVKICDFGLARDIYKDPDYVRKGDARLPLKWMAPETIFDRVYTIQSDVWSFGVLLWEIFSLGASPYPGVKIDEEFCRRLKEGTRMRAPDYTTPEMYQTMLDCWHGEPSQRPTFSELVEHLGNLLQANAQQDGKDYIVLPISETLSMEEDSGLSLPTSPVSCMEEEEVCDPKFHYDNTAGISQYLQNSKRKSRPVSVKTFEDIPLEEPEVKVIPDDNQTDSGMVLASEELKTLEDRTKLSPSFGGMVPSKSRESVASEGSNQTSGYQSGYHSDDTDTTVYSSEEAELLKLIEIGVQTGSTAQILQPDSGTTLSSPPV
T2 sequence (Q02763 23-1124, species assumed): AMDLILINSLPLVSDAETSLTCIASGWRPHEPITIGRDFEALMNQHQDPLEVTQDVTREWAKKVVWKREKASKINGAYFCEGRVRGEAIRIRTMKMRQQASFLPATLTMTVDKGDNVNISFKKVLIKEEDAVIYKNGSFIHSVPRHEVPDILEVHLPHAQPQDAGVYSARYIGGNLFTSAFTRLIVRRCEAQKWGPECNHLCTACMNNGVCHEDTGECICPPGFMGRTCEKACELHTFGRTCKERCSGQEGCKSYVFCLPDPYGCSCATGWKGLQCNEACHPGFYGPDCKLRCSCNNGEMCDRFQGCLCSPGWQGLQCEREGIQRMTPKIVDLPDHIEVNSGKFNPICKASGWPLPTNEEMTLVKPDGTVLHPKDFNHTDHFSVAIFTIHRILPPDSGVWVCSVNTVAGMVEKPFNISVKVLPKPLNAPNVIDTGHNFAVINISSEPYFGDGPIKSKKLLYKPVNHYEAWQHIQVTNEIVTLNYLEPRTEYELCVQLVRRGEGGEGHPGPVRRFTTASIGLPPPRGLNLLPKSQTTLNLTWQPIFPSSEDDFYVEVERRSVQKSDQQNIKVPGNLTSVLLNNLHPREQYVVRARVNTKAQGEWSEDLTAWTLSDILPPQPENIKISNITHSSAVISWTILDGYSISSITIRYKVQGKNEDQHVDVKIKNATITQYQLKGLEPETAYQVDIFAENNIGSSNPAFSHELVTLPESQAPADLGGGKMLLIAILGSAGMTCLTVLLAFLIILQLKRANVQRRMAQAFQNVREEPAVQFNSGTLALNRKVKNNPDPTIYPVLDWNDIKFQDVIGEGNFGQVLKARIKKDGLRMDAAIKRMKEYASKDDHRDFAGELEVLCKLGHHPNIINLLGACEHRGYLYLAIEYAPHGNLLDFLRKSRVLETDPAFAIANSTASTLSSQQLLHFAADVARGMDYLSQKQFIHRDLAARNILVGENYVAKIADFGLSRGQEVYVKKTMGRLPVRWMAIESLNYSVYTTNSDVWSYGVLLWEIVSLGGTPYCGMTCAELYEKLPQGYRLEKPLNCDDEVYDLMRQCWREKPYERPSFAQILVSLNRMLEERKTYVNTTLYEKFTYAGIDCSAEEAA
T10 sequence (P08631 whole entry, the tested form may be a part): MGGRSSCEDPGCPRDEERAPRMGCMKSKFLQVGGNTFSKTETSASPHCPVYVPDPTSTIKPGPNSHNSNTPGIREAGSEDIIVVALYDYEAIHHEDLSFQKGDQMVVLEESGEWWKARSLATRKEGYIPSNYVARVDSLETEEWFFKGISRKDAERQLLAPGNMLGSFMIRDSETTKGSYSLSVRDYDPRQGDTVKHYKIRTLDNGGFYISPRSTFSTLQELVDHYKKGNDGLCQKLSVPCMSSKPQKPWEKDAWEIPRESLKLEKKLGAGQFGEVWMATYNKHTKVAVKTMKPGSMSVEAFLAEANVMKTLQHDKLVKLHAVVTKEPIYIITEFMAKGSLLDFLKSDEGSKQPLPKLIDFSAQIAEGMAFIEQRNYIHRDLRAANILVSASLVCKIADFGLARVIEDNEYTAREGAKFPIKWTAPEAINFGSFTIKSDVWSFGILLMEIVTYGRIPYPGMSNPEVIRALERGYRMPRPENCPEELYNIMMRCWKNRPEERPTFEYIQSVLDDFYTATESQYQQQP
T6 sequence (P11362 22-822, species assumed): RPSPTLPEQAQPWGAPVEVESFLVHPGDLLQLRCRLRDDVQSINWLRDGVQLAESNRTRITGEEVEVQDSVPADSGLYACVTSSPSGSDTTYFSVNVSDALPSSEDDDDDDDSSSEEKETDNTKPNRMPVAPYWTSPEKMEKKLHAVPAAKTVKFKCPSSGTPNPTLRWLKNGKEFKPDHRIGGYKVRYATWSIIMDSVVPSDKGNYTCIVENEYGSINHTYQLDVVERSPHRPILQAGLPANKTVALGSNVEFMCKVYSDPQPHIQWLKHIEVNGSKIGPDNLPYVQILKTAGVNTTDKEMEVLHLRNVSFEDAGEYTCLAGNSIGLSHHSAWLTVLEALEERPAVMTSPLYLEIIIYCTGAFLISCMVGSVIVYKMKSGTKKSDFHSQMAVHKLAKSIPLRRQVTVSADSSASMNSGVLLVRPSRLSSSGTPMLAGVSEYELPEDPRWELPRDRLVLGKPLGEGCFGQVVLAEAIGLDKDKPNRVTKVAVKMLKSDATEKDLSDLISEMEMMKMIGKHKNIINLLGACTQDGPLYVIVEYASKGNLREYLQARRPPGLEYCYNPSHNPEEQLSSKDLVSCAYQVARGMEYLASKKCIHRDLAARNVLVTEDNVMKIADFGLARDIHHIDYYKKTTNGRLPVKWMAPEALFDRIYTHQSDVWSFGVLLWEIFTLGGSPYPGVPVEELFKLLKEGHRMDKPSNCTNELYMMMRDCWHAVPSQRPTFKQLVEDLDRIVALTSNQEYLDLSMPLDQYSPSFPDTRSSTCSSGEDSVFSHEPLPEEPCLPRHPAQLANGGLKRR

| IC50 (AKT) [µM] | IC50 (Tek) [µM] | IC50 (Zap-70) [µM] | IC50 (Lck) [µM] | IC50 (Kdr) [µM] | IC50 (FGFR1) [µM] | IC50 (EGFR) [µM] | IC50 (Lyn) [µM] | IC50 (IGFR-1) [µM] | IC50 (Hck-1) [µM] | IC50 (Itk) [µM] | IC50 (Fyn) [µM] | IC50 (ErbB4) [µM] | IC50 (c-Met) [µM] | SMILES |
| --- | --- | --- | --- | --- | --- | --- | --- | --- | --- | --- | --- | --- | --- | --- |
| > 11.8 | > 11.8 | > 11.8 | 1.05 to 6.29 | < 1.05 | 1.05 to 6.29 | 1.05 to 6.29 | < 1.05 | > 11.8 | > 11.8 | 9.18 to 11.8 | < 1.05 | 1.05 to 6.29 | 9.18 to 11.8 | CCOc1ccc(Nc2ncnc(Nc3ccc(C)c(O)c3)n2)cc1OCC [Compound 121] |
| > 11.3 | 8.76 to 11.3 | > 11.3 | 1 to 6.01 | < 1 | 1 to 6.01 | < 1 | < 1 | 1 to 6.01 | 1 to 6.01 | > 11.3 | < 1 | 1 to 6.01 | > 11.3 | COc1ccc(Nc2ncnc(Nc3cc(OC)c(OC)c(OC)c3)n2)cc1O [Compound 931] |
| > 11.3 | 8.81 to 11.3 | > 11.3 | 1.01 to 6.04 | < 1.01 | 1.01 to 6.04 | < 1.01 | < 1.01 | 1.01 to 6.04 | 6.04 to 8.81 | 6.04 to 8.81 | 1.01 to 6.04 | 1.01 to 6.04 | > 11.3 | COCCOc1ccc(Nc2ncnc(Nc3ccc(C)c(O)c3)n2)cc1OC [Compound 123] |
| > 9.97 | > 9.97 | > 9.97 | > 9.97 | 0.886 to 5.32 | 0.886 to 5.32 | > 9.97 | > 9.97 | < 0.886 | > 9.97 | > 9.97 | > 9.97 | > 9.97 | > 9.97 | COCCOc1ccc(Nc2ncnc(-n3c(N)nc4ccccc43)n2)cc1OCCOC [Compound 302] |
| 0.843 to 5.06 | 0.843 to 5.06 | 5.06 to 7.38 | 0.843 to 5.06 | < 0.843 | 0.843 to 5.06 | 0.843 to 5.06 | < 0.843 | 0.843 to 5.06 | > 9.48 | > 9.48 | 0.843 to 5.06 | < 0.843 | 5.06 to 7.38 | COc1ccc(Nc2ccc(Nc3ncnc(Nc4cc(OC)c(OC)c(OC)c4)n3)cc2)cc1 [Compound 922] |
| > 9.88 | > 9.88 | > 9.88 | > 9.88 | > 9.88 | > 9.88 | 0.878 to 5.27 | > 9.88 | > 9.88 | > 9.88 | > 9.88 | > 9.88 | > 9.88 | > 9.88 | COc1cc(Nc2ncnc(N(CC(=O)O)c3ccc4c(c3)OCO4)n2)cc(OC)c1OC [Compound 319] |
| > 10.7 | > 10.7 | > 10.7 | > 10.7 | 0.951 to 5.71 | > 10.7 | > 10.7 | > 10.7 | > 10.7 | > 10.7 | > 10.7 | > 10.7 | > 10.7 | 0.951 to 5.71 | COc1cc(Nc2ncnc(Nc3nnc(-c4ccccc4)[nH]3)n2)cc(OC)c1OC [Compound 311] |
| > 11.9 | > 11.9 | > 11.9 | 1.06 to 6.34 | 1.06 to 6.34 | 6.34 to 9.25 | > 11.9 | 1.06 to 6.34 | > 11.9 | > 11.9 | > 11.9 | 1.06 to 6.34 | > 11.9 | > 11.9 | COc1cc(Nc2ncnc(-n3ncc4ccccc43)n2)cc(OC)c1OC [Compound 240] |

| SMILES | IC50 (AKT) [µM] | IC50 (Tek) [µM] | IC50 (Zap-70) [µM] | IC50 (Lck) [µM] | IC50 (Kdr) [µM] | IC50 (FGFR1) [µM] | IC50 (EGFR) [µM] | IC50 (Lyn) [µM] | IC50 (IGFR-1) [µM] | IC50 (Hck-1) [µM] | IC50 (Itk) [µM] | IC50 (Fyn) [µM] | IC50 (ErbB4) [µM] | IC50 (c-Met) [µM] |
| --- | --- | --- | --- | --- | --- | --- | --- | --- | --- | --- | --- | --- | --- | --- |
| COc1cc(Nc2ncnc(-n3c(Nc4ccccc4)nc4ccccc43)n2)cc(OC)c1OC [Compound 336] | > 9.58 | > 9.58 | > 9.58 | 0.852 to 5.11 |  | < 0.852 | > 9.58 | 0.852 to 5.11 | > 9.58 | > 9.58 | > 9.58 | > 9.58 | > 9.58 | > 9.58 |
